# According to paper PMC9848300, “Discovery of novel enasidenib analogues targeting inhibition of mutant isocitrate dehydrogenase 2 as antileukaemic agents” (Journal of Enzyme Inhibition and Medicinal Chemistry, 2023):
# How the values were obtained:
# HL-60(TB) = test: NCI 60 antitumor screening (single dose / five doses); format: cell-based; details: Homo sapiens; for inhibition at 10 µM: HL-60(TB) (leukaemia), single dose 10 μM, read-out: Growth inhibition percentage (GI %)
# K-562 = test: as above; format: cell-based; details: Homo sapiens, K562; for inhibition at 10 µM: K-562 (leukaemia), single dose 10 μM, read-out: Growth inhibition percentage (GI %)
# MOLT-4 = test: as above; format: cell-based; details: Homo sapiens; for inhibition at 10 µM: MOLT-4 (leukaemia), single dose 10 μM, read-out: Growth inhibition percentage (GI %)
# RPMI-8226 = test: as above; format: cell-based; details: Homo sapiens; for inhibition at 10 µM: RPMI-8226 (leukaemia), single dose 10 μM, read-out: Growth inhibition percentage (GI %)
# EKVX = test: as above; format: cell-based; details: Homo sapiens; for inhibition at 10 µM: EKVX (non-small cell lung cancer), single dose 10 μM, read-out: Growth inhibition percentage (GI %)
# HCC-2998 = test: NCI 60 antitumor screening (single dose); format: cell-based; details: Homo sapiens; HCC-2998 (colon cancer), single dose 10 μM; read-out: Growth inhibition percentage (GI %)
# Method in brief: (§1)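 NCI-60 one-dose screen. Dose: 10 μM. Lines: 60 human tumour lines, nine tissue types. Output: GI% = 100 − G%.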
# HOP-62 = test: NCI 60 antitumor screening (single dose); format: cell-based; details: Homo sapiens; HOP-62 (non-small cell lung cancer), single dose 10 μM; read-out: Growth inhibition percentage (GI %)
# Method in brief: as §1
# NCI-H460 = test: NCI 60 antitumor screening (single dose); format: cell-based; details: Homo sapiens; NCI-H460 (non-small cell lung cancer), single dose 10 μM; read-out: Growth inhibition percentage (GI %)
# Method in brief: as §1
# OVCAR-8 = test: NCI 60 antitumor screening (single dose); format: cell-based; details: Homo sapiens; OVCAR-8 (ovarian cancer), single dose 10 μM; read-out: Growth inhibition percentage (GI %)
# Method in brief: (§2)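 NCI-60 protocol: single 10 μM dose against each cell line, run in triplicate. Percent growth (G%) of treated cells measured and growth inhibition reported as GI% = 100 − G%; panel mean also given.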
# PC-3 = test: NCI 60 antitumor screening (single dose); format: cell-based; details: Homo sapiens; PC-3 (prostate cancer), single dose 10 μM; read-out: Growth inhibition percentage (GI %)
# Method in brief: as §2
# TK-10 = test: NCI 60 antitumor screening (single dose); format: cell-based; details: Homo sapiens; TK-10 (renal cancer), single dose 10 μM; read-out: Growth inhibition percentage (GI %)
# Method in brief: as §2
# COLO 205 = test: NCI 60 antitumor screening (single dose / five doses); format: cell-based; details: Homo sapiens; for inhibition at 10 µM: COLO 205 (colon cancer), single dose 10 μM, read-out: Growth inhibition percentage (GI %)
# HCT-15 = test: as above; format: cell-based; details: Homo sapiens; for inhibition at 10 µM: HCT-15 (colon cancer), single dose 10 μM, read-out: Growth inhibition percentage (GI %)
# HT29 = test: as above; format: cell-based, human; details: Homo sapiens; for inhibition at 10 µM: HT-29, HT29 (colon cancer), single dose 10 μM, read-out: Growth inhibition percentage (GI %)
# SW-620 = test: as above; format: cell-based, human; details: Homo sapiens; for inhibition at 10 µM: SW-620 (colon cancer), single dose 10 μM, read-out: Growth inhibition percentage (GI %)
# SF-295 = test: as above; format: cell-based; details: Homo sapiens; for inhibition at 10 µM: SF-295 (CNS cancer), single dose 10 μM, read-out: Growth inhibition percentage (GI %)
# LOX IMVI = test: as above; format: cell-based; details: Homo sapiens; for inhibition at 10 µM: LOX IMVI (melanoma), single dose 10 μM, read-out: Growth inhibition percentage (GI %)
# SK-MEL-5 = test: as above; format: cell-based; details: Homo sapiens; for inhibition at 10 µM: SK-MEL-5 (melanoma), single dose 10 μM, read-out: Growth inhibition percentage (GI %)
# UACC-257 = test: as above; format: cell-based; details: Homo sapiens; for inhibition at 10 µM: UACC-257 (melanoma), single dose 10 μM, read-out: Growth inhibition percentage (GI %)
# UACC-62 = test: as above; format: cell-based; details: Homo sapiens; for inhibition at 10 µM: UACC-62 (melanoma), single dose 10 μM, read-out: Growth inhibition percentage (GI %)
# IGROV1 = test: as above; format: cell-based; details: Homo sapiens, IGROV-1; for inhibition at 10 µM: IGROV1 (ovarian cancer), single dose 10 μM, read-out: Growth inhibition percentage (GI %)
# 786-0 = test: as above; format: cell-based; details: Homo sapiens; for inhibition at 10 µM: 786-0, 786-0 (renal cancer), single dose 10 μM, read-out: Growth inhibition percentage (GI %)
# ACHN = test: as above; format: cell-based; details: Homo sapiens; for inhibition at 10 µM: ACHN (renal cancer), single dose 10 μM, read-out: Growth inhibition percentage (GI %)
# RXF 393 = test: as above; format: cell-based; details: Homo sapiens; for inhibition at 10 µM: RXF 393 (renal cancer), single dose 10 μM, read-out: Growth inhibition percentage (GI %)
# UO-31 = test: as above; format: cell-based; details: Homo sapiens; for inhibition at 10 µM: UO-31 (renal cancer), single dose 10 μM, read-out: Growth inhibition percentage (GI %)
# MDA-MB-231/ATCC = test: as above; format: cell-based; details: Homo sapiens; for inhibition at 10 µM: MDA-MB-231/ATCC (breast cancer), single dose 10 μM, read-out: Growth inhibition percentage (GI %)
# BT-549 = test: as above; format: cell-based; details: Homo sapiens; for inhibition at 10 µM: BT-549 (breast cancer), single dose 10 μM, read-out: Growth inhibition percentage (GI %)
# MDA-MB-468 = test: as above; format: cell-based; details: Homo sapiens; for inhibition at 10 µM: MDA-MB-468 (breast cancer), single dose 10 μM, read-out: Growth inhibition percentage (GI %)
structure (smiles),measurement,setting,value
"Oc1ccccc1/C=N/Nc1nc(N/N=C/c2ccccc2O)nc(N2CCOCC2)n1 [compound 6a, 2-[(1e)-(2-{4-[(E)-2-[(2-Hydroxyphenyl)methylidene]hydrazin-1-yl]-6-(morpholin-4-yl)-1,3,5-triazin-2-yl}hydrazin-1-ylidene)methyl]phenol]",inhibition at 10 µM,HL-60(TB),96.3%
same,GI50,"HL-60(TB); HL-60(TB), five doses (0.01–100 μM), read-out: GI50",0.19 µM
same,inhibition at 10 µM,K-562,74.6%
same,GI50,"K-562; K-562, five doses (0.01–100 μM), read-out: GI50",0.68 µM
same,inhibition at 10 µM,MOLT-4,54.9%
same,GI50,"MOLT-4; MOLT-4, five doses (0.01–100 μM), read-out: GI50",1.55 µM
same,inhibition at 10 µM,RPMI-8226,46.4%
same,GI50,"RPMI-8226; RPMI-8226, five doses (0.01–100 μM), read-out: GI50",2.78 µM
same,inhibition at 10 µM,EKVX,77.8%
same,GI50,"EKVX; EKVX, five doses (0.01–100 μM), read-out: GI50",3.28 µM
same,inhibition at 10 µM,HCC-2998,41.1%
same,inhibition at 10 µM,HOP-62,74.3%
same,inhibition at 10 µM,NCI-H460,67.5%
same,inhibition at 10 µM,OVCAR-8,87.3%
same,inhibition at 10 µM,PC-3,75.9%
same,inhibition at 10 µM,TK-10,52%
same,inhibition at 10 µM,COLO 205,52%
same,GI50,"COLO 205; COLO 205, five doses (0.01–100 μM), read-out: GI50",5.53 µM
same,inhibition at 10 µM,HCT-15,96.1%
same,GI50,"HCT-15; HCT-15, five doses (0.01–100 μM), read-out: GI50",0.24 µM
same,GI50,"HT29; HT-29, HT29, five doses (0.01–100 μM), read-out: GI50",5.89 µM
same,inhibition at 10 µM,HT29,65.8%
same,GI50,"SW-620; SW-620, SW-620, five doses (0.01–100 μM), read-out: GI50",1.78 µM
same,inhibition at 10 µM,SW-620,61.5%
same,inhibition at 10 µM,SF-295,80.4%
same,GI50,"SF-295; SF-295, five doses (0.01–100 μM), read-out: GI50",7.67 µM
same,inhibition at 10 µM,LOX IMVI,96%
same,GI50,"LOX IMVI; LOX IMVI, five doses (0.01–100 μM), read-out: GI50",0.28 µM
same,inhibition at 10 µM,SK-MEL-5,34.2%
same,GI50,"SK-MEL-5; SK-MEL-5, five doses (0.01–100 μM), read-out: GI50",5.86 µM
same,inhibition at 10 µM,UACC-257,46.7%
same,GI50,"UACC-257; UACC-257, five doses (0.01–100 μM), read-out: GI50",6.53 µM
same,inhibition at 10 µM,UACC-62,11.2%
same,GI50,"UACC-62; UACC-62, five doses (0.01–100 μM), read-out: GI50",2.45 µM
same,inhibition at 10 µM,IGROV1,63%
same,GI50,"IGROV1; IGROV1, five doses (0.01–100 μM), read-out: GI50",0.97 µM
same,inhibition at 10 µM,786-0,69.7%
same,GI50,"786-0; 786-0, five doses (0.01–100 μM), read-out: GI50",0.71 µM
same,inhibition at 10 µM,ACHN,71.9%
same,GI50,"ACHN; ACHN, five doses (0.01–100 μM), read-out: GI50",1.58 µM
same,inhibition at 10 µM,RXF 393,101%
same,GI50,"RXF 393; RXF 393, five doses (0.01–100 μM), read-out: GI50",0.27 µM
same,inhibition at 10 µM,UO-31,80.2%
same,GI50,"UO-31; UO-31, five doses (0.01–100 μM), read-out: GI50",0.37 µM
same,GI50,"MDA-MB-231/ATCC; MDA-MB-231/ ATCC, five doses (0.01–100 μM), read-out: GI50",2.42 µM
same,inhibition at 10 µM,MDA-MB-231/ATCC,63.7%
same,inhibition at 10 µM,BT-549,23.7%
same,GI50,"BT-549; BT-549, five doses (0.01–100 μM), read-out: GI50",5.19 µM
same,inhibition at 10 µM,MDA-MB-468,60.8%
same,GI50,"MDA-MB-468; MDA-MB-468, five doses (0.01–100 μM), read-out: GI50",4.11 µM
"Brc1cccc(/C=N/Nc2nc(N/N=C/c3cccc(Br)c3)nc(N3CCCCC3)n2)c1 [compound 7c, 2,4-Bis[(E)-2-[(3-Bromophenyl)methylidene]hydrazin-1-yl]-6-(piperidin-1-yl)-1,3,5-triazine]",inhibition at 10 µM,HL-60(TB),7.75%
same,inhibition at 10 µM,K-562,11.2%
same,inhibition at 10 µM,MOLT-4,31.6%
same,inhibition at 10 µM,RPMI-8226,11.8%
same,inhibition at 10 µM,EKVX,22.4%
same,inhibition at 10 µM,HCC-2998,-2.01%
same,inhibition at 10 µM,HOP-62,-8.46%
same,inhibition at 10 µM,NCI-H460,-2.41%
same,inhibition at 10 µM,OVCAR-8,2.62%
same,inhibition at 10 µM,PC-3,19.8%
same,inhibition at 10 µM,TK-10,-27.6%
same,inhibition at 10 µM,COLO 205,-5.18%
same,inhibition at 10 µM,HCT-15,16.1%
same,inhibition at 10 µM,HT29,3.98%
same,inhibition at 10 µM,SW-620,-8.28%
same,inhibition at 10 µM,SF-295,2.91%
same,inhibition at 10 µM,LOX IMVI,-5.74%
same,inhibition at 10 µM,SK-MEL-5,28.6%
same,inhibition at 10 µM,UACC-257,-4.98%
same,inhibition at 10 µM,UACC-62,14.5%
same,inhibition at 10 µM,IGROV1,-0.7%
same,inhibition at 10 µM,786-0,4.36%
same,inhibition at 10 µM,ACHN,-5.5%
same,inhibition at 10 µM,RXF 393,-16.1%
same,inhibition at 10 µM,UO-31,20.2%
same,inhibition at 10 µM,MDA-MB-231/ATCC,-8.36%
same,inhibition at 10 µM,BT-549,-13.1%
same,inhibition at 10 µM,MDA-MB-468,9.99%
